Patent publication US20170121344A1 (Siga Technologies, Inc., priority 2009, published 2017)
Read-outs that look alike come from different tables or passages of the source.

Test system: Dengue-2 (Strain New Guinea C)
Assay: Viral yield assay against Dengue-2 in Vero cells
Assay type: cell-based, Dengue virus
Conditions: Dengue virus
Procedure, shortened: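 Progeny virus from compound-treated Vero monolayers infected at an MOI of 0.1 is collected after 48 h at 37° C and titered on Vero cells. DMSO serves as control.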

[1] = DENV2, viral yield assay, Vero cells, MOI 0.1, 48 hours post infection, read-out: Activity (EC50 in μM) DENV-2
[2] = DENV2, Vero, 48 h, read-out: Activity (EC50 in μM) DENV-2
[3] = Vero cells, MOI 0.1, harvested 48 hours post infection, read-out: Activity (EC50 class) against Dengue-2 Virus in Vero cells
[4] = Vero, 48 h, read-out: Activity (EC50 class) against Dengue-2 Virus in Vero cells

COc1cccc(-c2ccc3c(N)c(C(=O)Nc4ccc(F)cc4F)sc3n2)c1 [Compound 502, 3-amino-N-(2,4-difluorophenyl)-6-(3-methoxyphenyl)thieno[2,3-b]pyridine-2-carboxamide]
EC50 [1]: < 5 µM

CCOc1ccccc1NC(=O)c1sc2nc(-c3ccc(F)cc3)ccc2c1N [Compound 606, 3-amino-N-(2-ethoxyphenyl)-6-(4-fluorophenyl)thieno[2,3-b]pyridine-2-carboxamide]
EC50 [1]: < 5 µM

N=C(Nc1cccc(C(F)(F)F)c1)c1sc2nc(-c3cccs3)ccc2c1N [Compound 319, 3-amino-6-(2-thienyl)-N-[3-(trifluoromethyl)phenyl]thieno[2,3-b]pyridine-2-carboxamidine]
EC50 [1]: < 5 µM

Nc1c(C(=O)Nc2ccc3c(c2)OCO3)sc2nc(-c3ccc(F)cc3)ccc12 [Compound 608, 3-amino-N-(1,3-benzodioxol-5-yl)-6-(4-fluorophenyl)thieno[2,3-b]pyridine-2-carboxamide]
EC50 [2]: < 5 µM

Nc1c(C(=O)Nc2ccncc2)sc2nc(-c3cccs3)ccc12 [Compound 357, 3-amino-N-(4-pyridyl)-6-(2-thienyl)thieno [2,3-b]pyridine-2-carboxamide]
EC50 [1]: < 5 µM

COc1ccc(NC(=O)c2sc3nc(-c4ccc(Cl)cc4)ccc3c2N)cc1 [Compound 527, 3-amino-6-(4-chlorophenyl)-N-(4-methoxyphenyl)thieno[2,3-b]pyridine-2-carboxamide]
EC50 [1]: < 5 µM

CC(=O)c1ccc(NC(=O)c2sc3nc(C)cc(C)c3c2N)cc1 [Compound 120, 3-Amino-4,6-dimethyl-thieno[2,3-b]pyridine-2-carboxylic acid (4-acetyl-phenyl)-amide]
EC50 [3]: > 25 µM

O=C(Nc1cccc(Cl)c1)c1sc2ncccc2c1O [Compound 381, N-(3-chlorophenyl)-3-hydroxy-thieno[2,3-b]pyridine-2-carboxamide]
EC50 [1]: 5 to 25 µM

Cc1ccc(NC(=O)c2sc3nc(-c4ccc(F)cc4)ccc3c2N)cc1C [Compound 607, 3-amino-N-(3,4-dimethylphenyl)-6-(4-fluorophenyl)thieno[2,3-b]pyridine-2-carboxamide]
EC50 [1]: < 5 µM

Cc1ccc(C)c(NC(=O)c2sc3nc(-c4ccc5c(c4)OCO5)ccc3c2N)c1 [Compound 588, 3-amino-6-(1,3-benzodioxol-5-yl)-N-(2,5-dimethylphenyl)thieno[2,3-b]pyridine-2-carboxamide]
EC50 [1]: < 5 µM

Nc1c(C(=O)Nc2cccc(C(F)(F)F)c2)sc2nc(-c3ccncc3)ccc12 [Compound 440, 3-amino-6-(4-pyridyl)-N-[3-(trifluoromethyl)phenyl]thieno[2,3-b] pyridine-2-carboxamide]
EC50 [1]: 5 to 25 µM

O=C(Nc1nccs1)c1sc2nc(N3CCOCC3)cc(-c3ccccc3)c2c1O [Compound 384, 3-hydroxy-6-morpholino-4-phenyl-N-thiazol-2-yl-thieno[2,3-b]pyridine-2-carboxamide]
EC50 [1]: 5 to 25 µM

COc1cccc(-c2ccc3c(N)c(C(=O)Nc4ccc(C)c(F)c4)sc3n2)c1 [Compound 523, 3-amino-N-(3-fluoro-4-methyl-phenyl)-6-(3-methoxyphenyl)thieno[2,3-b] pyridine-2-carboxamide]
EC50 [1]: < 5 µM

CN1CCc2nc3sc(C(=O)Nc4ccccc4)c(N)c3cc2C1 [Compound 48, 3-Amino-6-methyl-5,6,7,8-tetrahydro-thieno[2,3-b][1,6]naphthyridine-2-carboxylic acid phenylamide]
EC50 [3]: < 5 µM

CN1CCc2nc3sc(C(=O)Nc4ccc(F)cc4)c(N)c3cc2C1 [Compound 29, 3-Amino-6-methyl-5,6,7,8-tetrahydro-thieno[2,3-b][1,6]naphthyridine-2-carboxylic acid (4-fluoro-phenyl)-amide]
EC50 [3]: < 5 µM

Cc1cc(C)c2c(C)c(C(=O)Nc3ccc(NC(=O)C4CC4)cc3)sc2n1 [Compound 393, N-[4-(cyclopropanecarbonylamino)phenyl]-3,4,6-trimethyl-thieno[2,3-b]pyridine-2-carboxamide]
EC50 [1]: 5 to 25 µM

CCOC(=O)N1CCC(NC(=O)c2sc3nc4c(cc3c2N)CN(CC)CC4)CC1 [Compound 275]
EC50 [3]: > 25 µM

Cc1nc2c(sc3nc4c(cc32)COC(C)(C)C4)c(=O)n1CC1CCCO1 (centres unmarked) [Compound 236, 3,8,8-Trimethyl-2-(tetrahydro-furan-2-ylmethyl)-8,9-dihydro-2H,6H-7-oxa-11-thia-2,4,10-triaza-benzo[b]fluoren-1-one]
EC50 [3]: > 25 µM

CCOc1ccccc1NC(=O)c1sc2nc(-c3ccc(C)cc3)ccc2c1N [Compound 647, 3-amino-N-(2-ethoxyphenyl)-6-(p-tolyl)thieno[2,3-b]pyridine-2-carboxamide]
EC50 [1]: < 5 µM

Cc1ccc2c(N)c(C(=O)Nc3ccccc3C(F)(F)F)sc2n1 [Compound 418, 3-amino-6-methyl-N-[2-(trifluoromethyl)phenyl]thieno[2,3-b] pyridine-2-carboxamide]
EC50 [2]: 5 to 25 µM

Cc1c(C(=O)Nc2nccs2)sc2nc(-c3cccs3)cc(C(F)(F)F)c12 [Compound 386, 3-methyl-N-thiazol-2-yl-6-(2-thienyl)-4-(trifluoromethyl)thieno[2,3-b]pyridine-2-carboxamide]
EC50 [2]: < 5 µM

Nc1c(C(=O)Nc2cccc(C(F)(F)F)c2)sc2nc3c(cc12)CCCCCC3 [Compound 370, 3-amino-N-(3-(trifluoromethyl)phenyl)-5,6,7,8,9,10-hexahydrocycloocta[b] thieno[3,2-e]pyridine-2-carboxamide]
EC50 [1]: < 5 µM

Cc1ccc2c(N)c(C(=O)Nc3ccc(OC(F)(F)F)cc3)sc2n1 [Compound 457, 3-amino-6-methyl-N-[4-(trifluoromethoxy)phenyl]thieno[2,3-b] pyridine-2-carboxamide]
EC50 [1]: 5 to 25 µM

Nc1c(C(=O)N2CCC[C@H]2C(=O)O)sc2nc(-c3cccs3)ccc12 [Compound 484, 1-[3-amino-6-(2-thienyl)thieno[2,3-b]pyridine-2-carbonyl]pyrrolidine-2-carboxylic acid]
EC50 [2]: < 5 µM

COCc1cc(C)nc2sc(C(=O)Nc3cccc(Cl)c3)c(N)c12 [Compound 97, 3-Amino-4-methoxymethyl-6-methyl-thieno[2,3-b]pyridine-2-carboxylic acid (3-chloro-phenyl)-amide]
EC50 [3]: 5 to 25 µM

Cc1ccc(NC(=O)c2sc3nc(-c4ccc(F)cc4)ccc3c2N)c(C)c1 [Compound 614, 3-amino-N-(2,4-dimethylphenyl)-6-(4-fluorophenyl)thieno[2,3-b]pyridine-2-carboxamide]
EC50 [1]: < 5 µM

Nc1c(C(=O)Nc2ccc(Cl)cc2Cl)sc2nc(-c3ccc4c(c3)OCO4)ccc12 [Compound 537, 3-amino-6-(1,3-benzodioxol-5-yl)-N-(2,4-dichlorophenyl)thieno[2,3-b]pyridine-2-carboxamide]
EC50 [1]: < 5 µM

CCc1nc2c(sc3nc4c(cc32)COC(C)(C)C4)c(=O)n1Cc1ccco1 [Compound 235, 3-Ethyl-2-furan-2-ylmethyl-8,8-dimethyl-8,9-dihydro-2H,6H-7-oxa-11-thia-2,4,10-triaza-benzo[b]fluoren-1-one]
EC50 [4]: > 25 µM

NC(=O)c1sc2nc3c(c(-c4cccs4)c2c1N)CCCC3 [Compound 195, 3-Amino-4-thiophen-2-yl-5,6,7,8-tetrahydro-thieno[2,3-b]quinoline-2-carboxylic acid amide]
EC50 [3]: > 25 µM

CCc1c2c(nc3sc(C(=O)N4CCOCC4)c(N)c13)CC(C)(C)CC2=O [Compound 208, 3-Amino-4-ethyl-7,7-dimethyl-2-(morpholine-4-carbonyl)-7,8-dihydro-6H-thieno[2,3-b]quinolin-5-one]
EC50 [3]: > 25 µM

Cc1ccccc1NC(=O)c1sc2nc3c(c(-c4cccs4)c2c1N)CN(C)CC3 [Compound 27, 3-Amino-6-methyl-4-thiophen-2-yl-5,6,7,8-tetrahydro-thieno[2,3-b][1,6]naphthyridine-2-carboxylic acid o-tolylamide]
EC50 [3]: < 5 µM

NC(=O)c1sc2nc(-c3cccnc3)ccc2c1N [Compound 164, 3-Amino-6-pyridin-3-yl-thieno[2,3-b]pyridine-2-carboxylic acid amide]
EC50 [3]: > 25 µM

Nc1c(C(=O)N2CCCCC2)sc2nc3c(cc12)CCCCC3 [Compound 191, (3-Amino-6,7,8,9-tetrahydro-5H-1-thia-10-aza-cyclohepta[f]inden-2-yl)-piperidin-1-yl-methanone]
EC50 [3]: > 25 µM

Nc1c(C(=O)Nc2ccccc2F)sc2nc3c(cc12)CCC3 [Compound 180, 3-Amino-6,7-dihydro-5H-cyclopenta[b]thieno[3,2-e]pyridine-2-carboxylic acid (2-fluoro-phenyl)-amide]
EC50 [4]: > 25 µM

Nc1c(C(=O)Nc2cc(F)ccc2F)sc2nc(-c3cc(Cl)ccc3Cl)ccc12 [Compound 629, 3-amino-6-(2,5-dichlorophenyl)-N-(2,5-difluorophenyl)thieno[2,3-b]pyridine-2-carboxamide]
EC50 [1]: < 5 µM

CCN1CCc2nc3sc(C(=O)Nc4ccccc4OC(F)(F)F)c(N)c3cc2C1 [Compound 40, 3-Amino-6-ethyl-5,6,7,8-tetrahydro-thieno[2,3-b][1,6]naphthyridine-2-carboxylic acid (2-trifluoromethoxy-phenyl)-amide]
EC50 [3]: < 5 µM

CC(NC(=O)c1sc2nc3c(cc2c1N)CN(C)CC3)[C@]12C[C@H]3C[C@H](C[C@H](C3)C1)C2 (some centres unmarked) [Compound 47, 3-Amino-6-methyl-5,6,7,8-tetrahydro-thieno[2,3-b][1,6]naphthyridine-2-carboxylic acid (1-adamantan-1-yl-ethyl)-amide]
EC50 [3]: < 5 µM

CN1CCc2nc3sc(C(=O)Nc4cccc(C(F)(F)F)c4)c(N)c3cc2C1 [Compound 280, 3-Amino-6-methyl-5,6,7,8-tetrahydro-thieno[2,3-b][1,6]naphthyridine-2-carboxylic acid (3-trifluoromethyl-phenyl)-amide]
EC50 [3]: > 25 µM
